Source: publication PMC10619443, “Structural snapshots of Mycobacterium tuberculosis enolase reveal dual mode of 2PG binding and its implication in enzyme catalysis” (IUCrJ, 2023)

Molecular target: T1, MtEno (Mycobacterium tuberculosis, UniProt P9WNL1)
T1 construct: gene eno
T1 sequence (P9WNL1 whole entry): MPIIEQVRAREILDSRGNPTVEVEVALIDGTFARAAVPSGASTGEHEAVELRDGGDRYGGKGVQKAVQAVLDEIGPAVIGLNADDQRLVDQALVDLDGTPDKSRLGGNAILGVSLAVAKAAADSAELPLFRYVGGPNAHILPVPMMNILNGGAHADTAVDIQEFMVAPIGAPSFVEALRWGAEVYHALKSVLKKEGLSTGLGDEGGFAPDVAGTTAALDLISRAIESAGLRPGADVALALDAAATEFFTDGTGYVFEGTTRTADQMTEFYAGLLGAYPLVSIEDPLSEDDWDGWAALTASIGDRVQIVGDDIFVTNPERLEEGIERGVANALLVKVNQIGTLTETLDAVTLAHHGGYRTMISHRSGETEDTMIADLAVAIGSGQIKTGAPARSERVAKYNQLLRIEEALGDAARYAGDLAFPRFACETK

Compound: O=C(O)[C@@H](CO)OP(=O)(O)O [2PG, 2-phosphoglycerate]
- X-ray crystal structure: Of the two structures of MtEno-2PG, one harbored the 2PG-canonical pose
